For one experiment, the system named is Breast CSCs. Nature of the experiment: cell viability by XTT assay. As to conditions: 3 days. Format: cell-based. Here is the method:
Breast CSCs were seeded in 96-well plate and treated with sulforaphane, diallyl trisulphide, resveratrol and curcumin for 3 days. At the end of incubation period, CSCs were harvested and cell viability was measured by XTT assay.
Breast CSCs were seeded in 96-well plate and treated with rottlerin, EGCG, embelin, and honokiol for 3 days. At the end of incubation period, breast CSCs were harvested and cell viability was measured by XTT assay.
(A-D) Breast CSCs were treated with PITC (0-20 μM), BSC, (0-20 μM), sulforaphane (0-20 μM) and honokiol (0-10 μM) for 3 days, and cell viability was measured by XTT assay.
Breast CSCs were treated with rottlerin (0-1 μM) for 3 days, and cell viability was measured by XTT assay.
Breast CSCs were seeded in 96-well plate and treated with sulforaphane, diallyl trisulphide, resveratrol, and curcumin for 3 days and cell viability was measured by XTT assay. The results of those studies are illustrated in FIG. 29.
Breast CSCs were seeded in 96-well plate and treated with Rottlerin, EGCG, embelin, and honokiol for 3 days and cell viability was measured by XTT assay. The results of those studies are illustrated in FIG. 30.

For experiment [1], the system named is Pancreatic CSCs. Nature of the experiment: Matrigel invasion assay. Format: cell-based, human. Here is the method:
(A and B) Pancreatic CSCs were treated with rottlerin (0-1 μM) for 24 h. The expression of Zeb-1 and Slug was measured by the qRT-PCR and normalized to GAPDH. […] (C) In vitro Matrigel invasion assay. CSCs were plated onto the Matrigel-coated membrane in the top chamber of the transwell and treated with rottlerin (0-2 μM) for 48 h. Cells invaded to the lower chamber were fixed with methanol, stained with crystal violet and photo micrographed.
(A) Pancreatic CSCs were treated with EGCG (0-60 μM) for 48 h. At the end of incubation period, the expression of Snail, ZEB1 and Slug was measured by q-RT-PCR. […] (B) Transwell migration assay. Pancreatic CSCs were plated in the top chamber of the transwell and treated with EGCG (0-60 μM) for 24 h. Cells migrated to the lower chambered were fixed with methanol, stained with crystal violet and counted. […] (C) Matrigel invasion assay. CSCs were plated onto the Matrigel-coated membrane in the top chamber of the transwell and treated with EGCG (0-60 μM) for 48 h. Cells invaded to the lower chambered were fixed with methanol, stained with crystal violet and counted. […] (D) Effects of EGCG on TCF-1/LEF activity. Pancreatic CSCs were transduced with TCF/LEF responsive GFP/firefly luciferase viral particles (pGreen Fire1-Gli with EF1, System Biosciences). Transduced CSCs were treated with EGCG (0-60) for 48 h and the GFP fluorescence was measured.
FIG. 42A and FIG. 42B show graphs showing quercetin synergizes with EGCG to inhibit self-renewal capacity, invasion, migration, and TCF/LEF and Gli transcriptional activities in pancreatic CSCs. (A) Effects of EGCG and quercetin on spheroid and colony formation. Upper Panel, uercetin synergizes with EGCG to inhibit spheroid's cell viability. CSCs were seeded in suspension and treated with EGCG (0-60 μM) with or without quercetin (20 μM) for 7 days. At the end of incubation period, all the spheroids were collected and resuspended. Cell viability was measured by trypan blue assay. […] Lower panel, uercetin synergizes with EGCG to inhibit colony formation. Pancreatic CSCs were seeded in soft agar and treated with various doses of EGCG (0-60 μM) with or without quercetin (20 μM) and incubated at […] for 21 days. At the end of incubation period, colonies were counted. […] (B) Effects of EGCG and quercetin on invasion and migration. Upper panel, Matrigel invasion assay. […] Cells invaded to the lower chambered were fixed with methanol, stained with crystal violet and counted. […] Cells migrated to the lower chambered were fixed with methanol, stained with crystal violet and counted. […] Apoptosis was measured by TUNEL assay. […] Transduced CSCs were treated with EGCG (40 μM) with or without quercetin (20 μM) for 48 hrs and the luciferase activity was measured.

The subject of experiment [2] is Pancreatic CSCs. Nature of the experiment: caspase-3/7 activity. Format: cell-based, human. Here is the method:
(A and B) Induction of apoptosis and activation of caspase-3/-7. Pancreatic CSCs were treated with rottlerin (0-2 μM) for 48 h, and apoptosis and caspase-3/-7 activity were measured by […] and colorometric assay, respectively. […] (C) Pancreatic CSCs were treated with rottlerin (0-1 μM) for 48 h, and the expression of Bcl-2, XIAP and Survivin was measured by qRT-PCR and normalized to GAPDH.
(A) Regulation of caspase-3/7 activity by EGCG. CSCs were treated with EGCG (0-60 μM) for 24 h, and caspase-3/7 activity was measured as per manufacturer's instructions. […] (B) Regulation of apoptosis by EGCG. CSCs were treated with EGCG (0-60 μM) for 48 h, and apoptosis was measured by TUNEL assay. […] (C) Regulation of apoptosis-related proteins. Pancreatic CSCs were treated with EGCG (0-60 μM) for 36 h. Real time PCR (q-RT-PCR) was performed to examine the expression of Bcl-2, survivin, XIAP, and GAPDH.

Where [3] appears, read: EGCG 0-60 μM with or without quercetin 20 μM, 48 hrs.

Regarding `O=C(O[C@@H]1Cc2c(O)cc(O)cc2O[C@@H]1c1cc(O)c(O)c(O)c1)c1cc(O)c(O)c(O)c1` [EGCG, epigallocatechin gallate], in the experiment with Breast CSCs, the cell viability entry is “inhibit cell viability”. Moreover, the invasion result in the experiment with Pancreatic CSCs [1] (setting [3]) is “inhibited cell viability in spheroids, colony formation, migration and invasion by CSCs in a dose-dependent manner”; with Pancreatic CSCs [1] (EGCG 0-60 μM, 48 h) it was “inhibited”. In the experiment on Pancreatic CSCs [2] (EGCG 0-60 μM, 24 h), the caspase-3/7 activity entry is “induced caspase-3/7 activity and apoptosis in pancreatic CSCs in a dose-dependent manner”.
Regarding `O=c1c(O)c(-c2ccc(O)c(O)c2)oc2cc(O)cc(O)c12` [quercetin], in the experiment on Pancreatic CSCs [1] (setting [3]), the invasion entry is “effective alone”.
As to `CC(=O)c1c(O)c(C)c(O)c(Cc2c(O)c3c(c(C(=O)/C=C/c4ccccc4)c2O)OC(C)(C)C=C3)c1O` [rottlerin], the cell viability result with Breast CSCs is “inhibits cell viability”. In addition, the in vitro invasion entry in the experiment on Pancreatic CSCs [1] (rottlerin 0-2 μM, 48 h, Matrigel) is listed as “inhibited the in vitro invasion”. Besides, the caspase-3/-7 activity result in the experiment on Pancreatic CSCs [2] (rottlerin 0-2 μM, 48 h, colorometric assay) is “induced”.
With `C[S+]([O-])CCCCN=C=S` (stereo not drawn) [sulforaphane], the cell viability entry in the experiment with Breast CSCs is recorded as “inhibit cell viability”.

(Values after patent US20160374944A1, “COMPOSITIONS AND METHODS FOR TREATING AND PREVENTING CANCER BY TARGETING AND INHIBITING CANCER STEM CELLS” (priority 2011, published 2016).)
